The subject of one experiment is hippocampal neurons. The experiment can be described thus: Whole cell patch-clamp with imposed Cl− load in hippocampal neurons. The class given is cell-based, Sprague Dawley. As to conditions: 1 h incubation, 32 mM Cl− load; controls −47.4±2.3. As for the experimental part: Neuronal Cultures. Hippocampal neurons were prepared from Sprague Dawley E18 embryos and plated at 450,000 per dish and maintained at 37° C. in a humidified 5% CO2 incubator for 10-25 days before experimentation (Lee et al., Nat. Neurosci. 14, 736-743 (2011)).
Neuronal Patch clamp assays. Neuronal cell culture recordings were performed in bath saline at 34° C. For gramicidin perforated-patch experiments, pipettes contained (in mM): 140 KCl and 10 HEPES, pH 7.4 KOH. For whole-cell experiments, pipettes contained (in mM): 115 K-meth-SO4, 30 KCl, 2 Mg-ATP, 4 Na-ATP, 0.4 Na-GTP, and 10 HEPES, pH 7.4 KOH. Bath saline contained the following (in mM): 140 NaCl, 2.5 KCl, 2.5 CaCl2, 2.5 MgCl2, 10 HEPES, and 11 glucose, pH 7.4 NaOH (Kontou et al., 2021, supra). All compound solutions were applied to cells using a three-barreled 700 μm pipe positioned just above the cell (Warner Instruments). […] All voltages from whole-cell experiments were corrected offline using a calculated liquid junction potential value (13.6 mV) in Clampex (Molecular Devices). For gramicidin perforated-patch experiments, intracellular Cl^− values were back-calculated using measured EGABA values and the Nernst equation: […]
5 min after break-in, an initial EGABA value was determined and the effects of a subsequent 5 min incubation with VU0463271 was assessed.
A general note: The patch-clamp technique gives a direct electrical read-out from membranes.

The subject of a further experiment is hippocampus. Kind of experiment: Neuronal cell death in the hippocampus, Compound A with diazepam. In kind it is in vivo. The conditions noted are these: mice, Compound A and diazepam vs diazepam alone.

Results on one compound are retold here after US20250281499A1, “FUSED AMINO PYRIMIDINE COMPOUNDS FOR TREATMENT OF NEUROPATHIC AND NEURO-INFLAMMATORY PAIN” (Ovid Therapeutics Inc., priority 2024, published 2025).

As for `C[C@@H]1CN(c2nc3c(c(Nc4ccc(C5CCCCC5)cc4)n2)COC3)CCO1` [Compound A, (R)—N-(4-cyclohexylphenyl)-2-(2-methylmorpholino)-5,7-dihydrofuro[3,4-d]pyrimidin-4-amine], in the experiment on hippocampal neurons, the “basal EGABA” value is reported as −59.3±2.1 mV. The “neuronal cell death in the hippocampus” value with hippocampus is “significantly reduced”.
